In patent publication US20260306490A1, “PIM1 INHIBITOR FOR TREATING MYELOPROLIFERATIVE NEOPLASMS” (Sumitomo Pharma America, Inc., priority 2022, published 2026):
Where two headings read alike, the source gives them in different places.

What was measured:
PIM1 = conditions: cited from earlier work
R/R AML = conditions: cited from earlier work
Solid tumor = conditions: n = 35; cited from earlier work
PIM3 = conditions: cited from earlier work
PIM2 = conditions: cited from earlier work
[1] = test system: hematology parameters (platelet counts); experiment: CGLP preclinical dog study, hematology parameters; type: in vivo
MF patients = conditions: JAKARTA, monotherapy 400 mg QD, N = 96; cited from earlier work
R/R MF = conditions: ≥100 × 10^9/L PLT, monotherapy; cited from earlier work
[2] = read-out: Preclinical IC50, PIM1
[3] = read-out: Preclinical IC50, PIM3
[4] = read-out: Preclinical IC50, PIM2
[5] = R/R AML (n = 30), Other (n = 9)

Question: With N[C@@H]1CCCN(c2c(/C=C3\SC(=O)NC3=O)cccc2-c2ccccc2)C1 [AZD1208] as the compound, how does the IC50 (PIM1; [2]) read?
Answer: […]

Question: And the “Efficacy, circulating blasts (in several patients)” value (R/R AML; R/R AML, n = 32)?
Answer: response, reduction

Question: What about the “Hem AE, Febrile neutropenia” value (R/R AML; R/R AML, n = 32) of the same compound?
Answer: (28%)

Question: And the “Non-hem AE, diarrhea” value (R/R AML; R/R AML, n = 32)?
Answer: diarrhea (44%),

Question: And the “Non-hem AE, nausea” value (R/R AML; R/R AML, n = 32)?
Answer: Nausea (47%)

Question: And the “Non-hem AE, pneumonia” value (R/R AML; R/R AML, n = 32)?
Answer: pneumonia (19%)

Question: What about the “Non-hem AE, vomiting” value (R/R AML; R/R AML, n = 32) of the same compound?
Answer: vomiting (31%),

Question: What about the “Efficacy, stable disease for ≥6 weeks” value (Solid tumor) of the same compound?
Answer: ≥6 weeks in 13 patients

Question: And the “Hem AE, Anemia” value (Solid tumor)?
Answer: Anemia (51%),

Question: And the “Hem AE, Thrombocytopenia” value (Solid tumor)?
Answer: (14-26%)

Question: And the “Hem AE, WBC decreased” value (Solid tumor)?
Answer: WBC decreased (26%)

Question: And the “Non-hem AE, diarrhea” value (Solid tumor)?
Answer: Diarrhea (83%),

Question: What about the “Non-hem AE, nausea” value (Solid tumor) of the same compound?
Answer: nausea (74%)

Question: And the “Non-hem AE, vomiting” value (Solid tumor)?
Answer: vomiting (54%),

Question: What about the IC50 (PIM3; [3]) of the same compound?
Answer: 1.9 nM

Question: Which results are given for CN1CCC(CNc2ccc3ncc(-c4cccc(OC(F)(F)F)c4)n3n2)CC1 [Compound (2)]?
Answer: hematology parameters ([1]; 10 mg/kg/day, either sex): not considered to be altered; platelet counts (PLT) increase ([1]; 30 mg/kg/day, females): 12.1%; platelet counts (PLT) increase ([1]; 30 mg/kg/day, males): 16.5%; platelet counts (PLT) increase ([1]; 90 mg/kg/day, females): 26.3%; platelet counts (PLT) increase ([1]; 90 mg/kg/day, males): 20%; IC50 (PIM1; unit inferred, read-out: PIM1 IC50): […]; IC50 (PIM3; unit inferred, read-out: PIM3 IC50): 20 nM; IC50 (PIM2; unit inferred, read-out: PIM2 IC50): 980 nM

Question: With Cc1cnc(Nc2ccc(OCCN3CCCC3)cc2)nc1Nc1cccc(S(=O)(=O)NC(C)(C)C)c1 [Fedratinib, fedratinib] as the compound, how does the “TEAE Anemia, All Gr” value (MF patients) read?
Answer: 99%

Question: What about the “TEAE Anemia, ≥3 Gr” value (MF patients) of the same compound?
Answer: 43%

Question: What about the “TEAE Neutropenia, All Gr” value (MF patients) of the same compound?
Answer: 28%

Question: And the “TEAE Neutropenia, ≥3 Gr” value (MF patients)?
Answer: 8%

Question: What about the “TEAE Thrombocytopenia, All Gr” value (MF patients) of the same compound?
Answer: 63%

Question: And the “TEAE Thrombocytopenia, ≥3 Gr” value (MF patients)?
Answer: 17%

Question: For C[C@H]1CN(c2c(NC(=O)c3ccc(F)c(-c4c(F)cccc4F)n3)cnc3c2CC[C@H]3O)C[C@@H](N)[C@@H]1O [INCB053914], which IC50 (PIM1; [2]) is on record?
Answer: 0.24 nM

Question: And the “Hem AE, G3+ anemia” value (R/R AML; [5])?
Answer: G3+ Anemia (18%)

Question: What about the “Hem AE, G3+ thrombocytopenia” value (R/R AML; [5]) of the same compound?
Answer: (13%)

Question: And the “Non-hem AE, ALT/AST increased” value (R/R AML; [5])?
Answer: (36%),

Question: What about the “Non-hem AE, diarrhea” value (R/R AML; [5]) of the same compound?
Answer: diarrhea (21%), rash

Question: And the “Non-hem AE, nausea” value (R/R AML; [5])?
Answer: nausea (23%),

Question: And the “Non-hem AE, rash” value (R/R AML; [5])?
Answer: (15%)

Question: And the IC50 (PIM3; [3])?
Answer: 0.12 nM

Question: What about the IC50 (PIM2; [4]) of the same compound?
Answer: 30 nM

Question: For CC1(C)CCC(c2ccc(Cl)cc2)=C(CN2CCN(c3ccc(C(=O)NS(=O)(=O)c4ccc(N[C@H](CCN5CCOCC5)CSc5ccccc5)c(S(=O)(=O)C(F)(F)F)c4)cc3)CC2)C1 [Navitoclax, navitoclax], which “SVR35 at Week 24” value (R/R MF) is on record?
Answer: 7%

Question: And the “TSS50 at Week 24” value (R/R MF)?
Answer: 10%
